According to patent publication US4446136A, “Agents for improvement of peripheral blood flow” (Yamanouchi Pharmaceutical Co., Ltd., priority 1980, dated 1984):

What was measured:
[1] = test system: human erythrocytes
Experimental: A mixture of 1 part of human blood and 1 part (v/v) of preservative solution (sodium citrate buffer containing glucose) was washed 4 to 5 times with physiological saline solution and then 2% (by volume) erythrocyte solution was prepared in physiological saline. In the next step, physiological saline solutions containing 0.05% gelatin, 0.1% α1 -acid glycoprotein, 0.1% polyethylene glycol, 0.1% γ-globulin, 0.1% ovomucoid, 0.1% dextran, 0.1% dextran sulfate, 0.1% chondroitin sulfate, or physiological saline alone were mixed with an equal volume of the erythrocyte suspension, and then each mixture was shaken mildly for 30 min at 37° C. Thereafter 1 ml of each mixture was subjected to filtration through a nitrocellulose membrane filter (13 mm in diameter and 5 μm in average size of micropores, made by Sartorius Co.) at 37° C. under a pressure of 80 mmHg/cm^2. The filtrate was immediately subjected to centrifugation for 2 min at 1,500 r.p.m. and from the supernatant, the ratio of hemolysis during filtration was calculated based on absorbance at 420 nm. As to the erythrocytes remaining on the filter, 5 ml of deionized water was added to the erythrocytes on the membrane filter by placing into a test tube, and the resulting hemolysis due to hypotonicis permitted a measurement of absorbance at 420 nm to calculate the ratio of filtered erythrocytes through the membrane.

[2] = test system: blood flow in microvessels; assay: Effects on microcirculation in vivo in mesenterium of rabbit with lowered blood pressure (Experiment 3); details: other substances, anesthetized rabbit, low arterial blood pressure
[3] = test system: Rat; assay: Acute toxicity (LD50) in rat; type: in vivo; set-up: unit not given here; details: intravenous, intraperitoneal, subcutaneous
[4] = test system: HeLa S3; assay: Toxicity of gelatin to cells in culture; type: cell-based
[5] = test system: erythrocytes; assay: Dose-response of gelatin on filtration and hemolysis of erythrocytes (Experiment 4(i)); type: cell-based
Experimental: (i) Following procedures similar to the Experiment 2 using a concentration of gelatin between 0-2.0 mg/ml, effects of the substance on the filtration ratios of erythrocytes through the membrane filter and the ratio of hemolysis were examined at various concentrations of gelatin.

[6] = Antigenic activity of gelatin; details: by itself
[7] = test system: Sheep; assay: Acute toxicity (LD50 of gelatin) in sheep; type: in vivo; set-up: unit not given here; details: intravenous, intraperitoneal, subcutaneous
[8] = test system: Lung fibroblasts of human embryo; assay: Toxicity of gelatin to cells in culture; type: cell-based
[9] = Acute toxicity, overall (Experiment 5); type: in vivo; details: summary of Tables 1, 2 and 3
[10] = test system: EB virus transformed lymphoblastoid cells P3HR-1; assay: Toxicity of gelatin to cells in culture; type: cell-based

Substance	erythrocytes hemolysed during filtration ([1]; human, erythrocytes)	actions on microcirculation as observed for gelatin [2]	ratio of passage (filtration) of erythrocytes through the filter ([1]; 0.05% gelatin, 0.1% other substances, 5 μm micropores, 37° C., 80 mmHg/cm^2)	ratio of hemolysis during filtration (in words) ([1]; 0.05% gelatin, 5 μm micropores, 37° C., vs physiological saline control)	LD50 of gelatin [3]	Toxicity (50% growth inhibition) [4]	filtration ratio on further increase in concentration ([5]; above 0.5 mg/ml gelatin)	concentration at which filtration ratio of erythrocytes reached plateau ([5]; gelatin 0-2.0 mg/ml)	antigenic activity [6]	LD50 of gelatin [7]	Toxicity (50% growth inhibition) [8]	acute toxicity (in words) [9]	Toxicity (50% growth inhibition) [10]
dextran sulfate [reference compound]	25-30%	did not exert any actions on microcirculation	–	–	–	–	–	–	–	–	–	–	–
gelatin	–	–	increased remarkably	reduced	> 1,000	> 100 µg/mL	did not improve the filtration ratio	0.5 mg/mL	no antigenic activity	> 1,000	> 100 µg/mL	very mild	> 100 µg/mL
